{"source": "patent US11331369B2", "about": "“Endoparasitic depsipeptides” (Zoetis Services LLC, priority 2017, dated 2022)"}
{"system": "microfilariae of Dirofilaria immitis", "test": "Dirofilaria immitis, Microfilaria (DiMF) In vitro Assay", "type": "cell-based", "details": "72 h, read-out: DiMF Minimum Effective Dose (MED), approximately 72 hours incubation, microfilariae assessed for survival or paralysis", "units": {"minimal effective concentration": "µM"}}
{"smiles": "CC(C)C[C@H]1C(=O)O[C@H](Cc2ccc(Cn3cc(COc4cccc(C#N)c4)nn3)cc2)C(=O)N(C)[C@@H](CC(C)C)C(=O)O[C@H](C)C(=O)N(C)[C@@H](CC(C)C)C(=O)O[C@H](Cc2ccccc2)C(=O)N(C)[C@@H](CC(C)C)C(=O)O[C@H](C)C(=O)N1C", "note": "[Example 10-23, 3-((1-(4-(((2R,5S,8R,11S,14R,17S,20R,23S)-14-benzyl-5,11,17,23-tetraisobutyl-4,8,10,16,20,22-hexamethyl-3,6,9,12,15,18,21,24-octaoxo-1,7,13,19-tetraoxa-4,10,16,22-tetraazacyclotetracosan-2-yl)methyl)benzyl)-1H-1,2,3-triazol-4-yl)methoxy)benzonitrile]", "minimal effective concentration": "0.01 to 0.1"}
{"smiles": "CC(C)C[C@H]1C(=O)O[C@H](Cc2ccc(CN3CC(CO)OC3=O)cc2)C(=O)N(C)[C@@H](CC(C)C)C(=O)O[C@H](C)C(=O)N(C)[C@@H](CC(C)C)C(=O)O[C@H](Cc2ccccc2)C(=O)N(C)[C@@H](CC(C)C)C(=O)O[C@H](C)C(=O)N1C", "note": "(stereo partly drawn) [Example 10-24, (3S,6R,9S,12R,15S,18R,21S,24R)-6-benzyl-18-(4-((5-(hydroxymethyl)-2-oxooxazolidin-3-yl)methyl)benzyl)-3,9,15,21-tetraisobutyl-4,10,12,16,22,24-hexamethyl-1,7,13,19-tetraoxa-4,10,16,22-tetraazacyclotetracosan-2,5,8,11,14,17,20,23-octaone]", "minimal effective concentration": "0.01 to 0.1"}
{"smiles": "CC(C)C[C@H]1C(=O)O[C@H](Cc2ccc(CN3CCCOC3=O)cc2)C(=O)N(C)[C@@H](CC(C)C)C(=O)O[C@H](C)C(=O)N(C)[C@@H](CC(C)C)C(=O)O[C@H](Cc2ccccc2)C(=O)N(C)[C@@H](CC(C)C)C(=O)O[C@H](C)C(=O)N1C", "note": "[Example 10-25, (3S,6R,9S,12R,15S,18R,21S,24R)-6-benzyl-3,9,15,21-tetraisobutyl-4,10,12,16,22,24-hexamethyl-18-(4-((2-oxo-1,3-oxazinan-3-yl)methyl)benzyl)-1,7,13,19-tetraoxa-4,10,16,22-tetraazacyclotetracosan-2,5,8,11,14,17,20,23-octaone]", "minimal effective concentration": "0.01 to 0.1"}
{"smiles": "CC(C)C[C@H]1C(=O)O[C@H](Cc2ccc(Cn3ncc4ccccc43)cc2)C(=O)N(C)[C@@H](CC(C)C)C(=O)O[C@H](C)C(=O)N(C)[C@@H](CC(C)C)C(=O)O[C@H](Cc2ccccc2)C(=O)N(C)[C@@H](CC(C)C)C(=O)O[C@H](C)C(=O)N1C", "note": "[Example 10-26, (3S,6R,9S,12R,15S,18R,21S,24R)-6-(4-((1H-indazol-1-yl)methyl)benzyl)-18-benzyl-3,9,15,21-tetraisobutyl-4,10,12,16,22,24-hexamethyl-1,7,13,19-tetraoxa-4,10,16,22-tetraazacyclotetracosan-2,5,8,11,14,17,20,23-octaone]", "minimal effective concentration": "0.01 to 0.1"}
{"smiles": "CC(C)C[C@H]1C(=O)O[C@H](Cc2ccc(Cn3cc4c(n3)CNC4)cc2)C(=O)N(C)[C@@H](CC(C)C)C(=O)O[C@H](C)C(=O)N(C)[C@@H](CC(C)C)C(=O)O[C@H](Cc2ccccc2)C(=O)N(C)[C@@H](CC(C)C)C(=O)O[C@H](C)C(=O)N1C", "note": "[Example 10-27, (3S,6R,9S,12R,15S,18R,21S,24R)-6-benzyl-18-(4-((5,6-dihydropyrrolo[3,4-c]pyrazol-2(4H)-yl)methyl)benzyl)-3,9,15,21-tetraisobutyl-4,10,12,16,22,24-hexamethyl-1,7,13,19-tetraoxa-4,10,16,22-tetraazacyclotetracosan-2,5,8,11,14,17,20,23-octaone]", "minimal effective concentration": "0.01 to 0.1"}
{"smiles": "CC(C)C[C@H]1C(=O)O[C@H](Cc2ccc(Cn3cc4c(n3)CCOC4)cc2)C(=O)N(C)[C@@H](CC(C)C)C(=O)O[C@H](C)C(=O)N(C)[C@@H](CC(C)C)C(=O)O[C@H](Cc2ccccc2)C(=O)N(C)[C@@H](CC(C)C)C(=O)O[C@H](C)C(=O)N1C", "note": "[Example 10-28, (3S,6R,9S,12R,15S,18R,21S,24R)-6-benzyl-18-(4-((6,7-dihydropyrano[4,3-c]pyrazol-2(4H)-yl)methyl)benzyl)-3,9,15,21-tetraisobutyl-4,10,12,16,22,24-hexamethyl-1,7,13,19-tetraoxa-4,10,16,22-tetraazacyclotetracosan-2,5,8,11,14,17,20,23-octaone]", "minimal effective concentration": "0.01 to 0.1"}
{"smiles": "CC(C)C[C@H]1C(=O)O[C@H](Cc2ccc(Cn3cc4c(n3)CN(C)C4)cc2)C(=O)N(C)[C@@H](CC(C)C)C(=O)O[C@H](C)C(=O)N(C)[C@@H](CC(C)C)C(=O)O[C@H](Cc2ccccc2)C(=O)N(C)[C@@H](CC(C)C)C(=O)O[C@H](C)C(=O)N1C", "note": "[Example 10-32, (3S,6R,9S,12R,15S,18R,21S,24R)-6-benzyl-3,9,15,21-tetraisobutyl-4,10,12,16,22,24-hexamethyl-18-(4-((5-methyl-5,6-dihydropyrrolo[3,4-c]pyrazol-2(4H)-yl)methyl)benzyl)-1,7,13,19-tetraoxa-4,10,16,22-tetraazacyclotetracosan-2,5,8,11,14,17,20,23-octaone]", "minimal effective concentration": "0.01 to 0.1"}
{"smiles": "CC(C)C[C@H]1C(=O)O[C@H](Cc2ccc(CN3CCS(=O)(=O)c4ccccc43)cc2)C(=O)N(C)[C@@H](CC(C)C)C(=O)O[C@H](C)C(=O)N(C)[C@@H](CC(C)C)C(=O)O[C@H](Cc2ccc(CN3CCS(=O)(=O)c4ccccc43)cc2)C(=O)N(C)[C@@H](CC(C)C)C(=O)O[C@H](C)C(=O)N1C", "note": "[Example 10-33, (3S,6R,9S,12R,15S,18R,21S,24R)-6,18-bis(4-((1,1-dioxido-2,3-dihydro-4H-benzo[b][1,4]thiazin-4-yl)methyl)benzyl)-3,9,15,21-tetraisobutyl-4,10,12,16,22,24-hexamethyl-1,7,13,19-tetraoxa-4, 10,16,22-tetraazacyclotetracosan-2,5,8,11,14,17,20,23-octaone]", "minimal effective concentration": "0.01 to 0.1"}
{"smiles": "CC(C)C[C@H]1C(=O)O[C@H](Cc2ccc(CN3CCSc4ncccc43)cc2)C(=O)N(C)[C@@H](CC(C)C)C(=O)O[C@H](C)C(=O)N(C)[C@@H](CC(C)C)C(=O)O[C@H](Cc2ccccc2)C(=O)N(C)[C@@H](CC(C)C)C(=O)O[C@H](C)C(=O)N1C", "note": "[Example 10-35, (3S,6R,9S,12R,15S,18R,21S,24R)-6-benzyl-18-[[4-(2,3-dihydropyrido[2,3-b][1,4]thiazin-1-ylmethyl)phenyl]methyl]-3,9,15,21-tetraisobutyl-4,10,12,16,22,24-hexamethyl-1,7,13,19-tetraoxa-4, 10,16,22-tetrazacyclotetracosane-2,5,8,11,14,17,20,23-octaone]", "minimal effective concentration": "0.01 to 0.1"}
{"smiles": "CC(C)C[C@H]1C(=O)O[C@H](Cc2ccc(CN3CCOc4cccnc43)cc2)C(=O)N(C)[C@@H](CC(C)C)C(=O)O[C@H](C)C(=O)N(C)[C@@H](CC(C)C)C(=O)O[C@H](Cc2ccccc2)C(=O)N(C)[C@@H](CC(C)C)C(=O)O[C@H](C)C(=O)N1C", "note": "[Example 10-37, (3S,6R,9S,12R,15S,18R,21S,24R)-6-benzyl-18-[[4-(2,3-dihydropyrido[3,2-b][1,4]oxazin-4-ylmethyl)phenyl]methyl]-3,9,15,21-tetraisobutyl-4,10,12,16,22,24-hexamethyl-1,7,13,19-tetraoxa-4, 10,16,22-tetrazacyclotetracosane-2,5,8,11,14,17,20,23-octaone]", "minimal effective concentration": "0.001 to 0.01"}
{"smiles": "CC(C)C[C@H]1C(=O)O[C@H](Cc2ccc(CN3CCSc4ccccc43)cc2)C(=O)N(C)[C@@H](CC(C)C)C(=O)O[C@H](C)C(=O)N(C)[C@@H](CC(C)C)C(=O)O[C@H](Cc2ccccc2)C(=O)N(C)[C@@H](CC(C)C)C(=O)O[C@H](C)C(=O)N1C", "note": "[Example 10-41, (3S,6R,9S,12R,15S,18R,21S,24R)-6-benzyl-18-(4-((2,3-dihydro-4H-benzo[b][1,4]thiazin-4-yl)methyl)benzyl)-3,9,15,21-tetraisobutyl-4,10,12,16,22,24-hexamethyl-1,7,13,19-tetraoxa-4,10,16,22-tetraazacyclotetracosan-2,5,8,11,14,17,20,23-octaone]", "minimal effective concentration": "0.01 to 0.1"}
{"system": "third stage larvae of Haemonchus contortus", "test": "Haemonchus contortus L3 (HcL3) Assay", "type": "cell-based", "details": "96 h, read-out: HcL3 Minimum Effective Dose (MED)", "units": {"minimal effective concentration": "µM"}}
{"smiles": "CC(C)C[C@H]1C(=O)O[C@H](Cc2ccc(Cn3cc(O)cn3)cc2)C(=O)N(C)[C@@H](CC(C)C)C(=O)O[C@H](C)C(=O)N(C)[C@@H](CC(C)C)C(=O)O[C@H](Cc2ccc(Cn3cc(O)cn3)cc2)C(=O)N(C)[C@@H](CC(C)C)C(=O)O[C@H](C)C(=O)N1C", "note": "[Example 1b-18, (3S,6R,9S,12R,15S,18R,21S,24R)-6,18-bis(4-((4-hydroxy-1H-pyrazol-1-yl)methyl)benzyl)-3,9,15,21-tetraisobutyl-4,10,12,16,22,24-hexamethyl-1,7,13,19-tetraoxa-4,10,16,22-tetraazacyclotetracosan-2,5,8,11,14,17,20,23-octaone]", "minimal effective concentration": "≤ 1"}
{"smiles": "CC(C)C[C@H]1C(=O)O[C@H](Cc2ccc(Cn3cc(N4CCOCC4)cn3)cc2)C(=O)N(C)[C@@H](CC(C)C)C(=O)O[C@H](C)C(=O)N(C)[C@@H](CC(C)C)C(=O)O[C@H](Cc2ccc(Cn3cc(N4CCOCC4)cn3)cc2)C(=O)N(C)[C@@H](CC(C)C)C(=O)O[C@H](C)C(=O)N1C", "note": "[Example 1b-179, (3S,6R,9S,12R,15S,18R,21S,24R)-3,9,15,21-tetraisobutyl-4,6,10,16,18,22-hexamethyl-12,24-bis(4-((4-morpholino-1H-pyrazol-1-yl)methyl)benzyl)-1,7,13,19-tetraoxa-4,10,16,22-tetraazacyclotetracosan-2,5,8,11,14,17,20,23-octaone]", "minimal effective concentration": "1 to 10"}
{"smiles": "CC(C)C[C@H]1C(=O)O[C@H](Cc2ccc(Cn3nccc3C(F)F)cc2)C(=O)N(C)[C@@H](CC(C)C)C(=O)O[C@H](C)C(=O)N(C)[C@@H](CC(C)C)C(=O)O[C@H](Cc2ccc(Cn3nccc3C(F)F)cc2)C(=O)N(C)[C@@H](CC(C)C)C(=O)O[C@H](C)C(=O)N1C", "note": "[Example 1b-211, (3S,6R,9S,12R,15S,18R,21S,24R)-6,18-bis(4-((5-(difluoromethyl)-1H-pyrazol-1-yl)methyl)benzyl)-3,9,15,21-tetraisobutyl-4,10,12,16,22,24-hexamethyl-1,7,13,19-tetraoxa-4,10,16,22-tetraazacyclotetracosan-2,5,8,11,14,17,20,23-octaone]", "minimal effective concentration": "≤ 1"}
